Results from patent publication US8207216B2, “Benzofuran-3-yl(indol-3-yl) maleimides as potent GSK3 inhibitors” (The Board of Trustees of the University of Illinois, priority 2006, dated 2012).

Legend:
[1] = target: T1, recombinant human His6-GSK-3β (Homo sapiens, UniProt P49841); test: GSK-3β kinase assay, [γ32P] transfer to primed glycogen synthase peptide; assay type: biochemical; settings: for IC50: 10 μM ATP, 10 μM pGSM peptide, 30 minutes at 30° C., read-out: IC50 (nM), GSK-3β inhibition;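 on all read-outs here: phosphate incorporation quantified by liquid scintillation counting of the filters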
T1 construct: His6; purchased EMD Biosciences
T1 sequence (P49841 whole entry): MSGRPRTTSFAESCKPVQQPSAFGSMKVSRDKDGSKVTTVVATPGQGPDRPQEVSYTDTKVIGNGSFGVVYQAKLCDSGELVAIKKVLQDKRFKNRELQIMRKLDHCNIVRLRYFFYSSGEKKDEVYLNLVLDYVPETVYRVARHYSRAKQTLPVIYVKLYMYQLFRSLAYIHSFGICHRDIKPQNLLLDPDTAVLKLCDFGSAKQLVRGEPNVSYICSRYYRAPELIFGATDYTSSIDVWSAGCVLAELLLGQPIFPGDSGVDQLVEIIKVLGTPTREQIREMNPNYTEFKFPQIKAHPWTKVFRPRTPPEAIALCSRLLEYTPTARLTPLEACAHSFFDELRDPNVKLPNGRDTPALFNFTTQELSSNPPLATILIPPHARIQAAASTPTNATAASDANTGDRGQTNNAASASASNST

BXPC-3 = test: Antiproliferation MTS assay, pancreatic cancer cells; assay type: cell-based; settings: Homo sapiens
HupT3 = test: as above; assay type: cell-based; settings: Homo sapiens
MIAPaCa-2 = test: as above; assay type: cell-based; settings: Homo sapiens
[2] = system: pancreatic cancer cell lines; test: Proliferation and survival of pancreatic cancer cells (overall statements); assay type: cell-based; settings: based on data of Table 5
Experimental: The pancreatic cancer cell lines BxPc-3, HupT3, MiaPaCa-2, Panc 04.03, and SU86.86 were obtained from ATCC (Rockville, Md.) and were grown in medium (DMEM or RPMI) containing 10% fetal calf serum and L-glutamine. Pancreatic cancer cells were plated out in duplicate into 6-wells of a 96-well microtiter plate at 2.5−4×10^3 cells per well. Four-hours post plating, individual wells were treated with diluent (DMSO) or varying concentrations of commercial compounds, AR-A014418 and SB216763, or the indicated GSK inhibitors of this invention from a concentration of 1 nM to 50 microM. […] The IC50s were calculated using XLfit (IDBS Limited, Guildford, UK).

CDK-2/cyclinE = CDK-2/cyclinE (Homo sapiens, UniProt P24941); test: CDK-2/CyclinE inhibition (Reaction Biology); assay type: biochemical; settings: for IC50 Ratio CDK-2/cyclinE GSK-3β: selectivity ratio; for IC50: tested at Reaction Biology, Inc.
GSK3α = GSK3α (Homo sapiens, UniProt P49840); test: Inhibition of various kinases (% inhibition); assay type: biochemical
Chain of GSK3α (P49840 whole entry, species assumed): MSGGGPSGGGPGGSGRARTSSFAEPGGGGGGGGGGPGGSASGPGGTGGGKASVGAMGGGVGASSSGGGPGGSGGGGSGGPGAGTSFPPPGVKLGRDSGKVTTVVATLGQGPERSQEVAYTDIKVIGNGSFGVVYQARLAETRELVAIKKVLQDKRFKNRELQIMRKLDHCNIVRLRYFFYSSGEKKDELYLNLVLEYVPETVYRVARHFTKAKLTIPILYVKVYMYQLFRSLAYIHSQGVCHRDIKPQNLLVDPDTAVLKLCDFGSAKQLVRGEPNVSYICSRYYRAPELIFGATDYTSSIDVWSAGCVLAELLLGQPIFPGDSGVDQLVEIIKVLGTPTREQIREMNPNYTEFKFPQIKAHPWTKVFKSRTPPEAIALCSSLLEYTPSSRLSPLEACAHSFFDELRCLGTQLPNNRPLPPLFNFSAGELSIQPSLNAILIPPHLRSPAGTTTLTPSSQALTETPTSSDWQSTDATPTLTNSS
From the text: (§1) Additional examples of selectivity are illustrated in Table 4.

PKCβ2 = PKCβ2 (Homo sapiens, UniProt P05771); test: Inhibition of various kinases (% inhibition); assay type: biochemical
Chain of PKCβ2 (P05771 1-673 isoform P05771-2): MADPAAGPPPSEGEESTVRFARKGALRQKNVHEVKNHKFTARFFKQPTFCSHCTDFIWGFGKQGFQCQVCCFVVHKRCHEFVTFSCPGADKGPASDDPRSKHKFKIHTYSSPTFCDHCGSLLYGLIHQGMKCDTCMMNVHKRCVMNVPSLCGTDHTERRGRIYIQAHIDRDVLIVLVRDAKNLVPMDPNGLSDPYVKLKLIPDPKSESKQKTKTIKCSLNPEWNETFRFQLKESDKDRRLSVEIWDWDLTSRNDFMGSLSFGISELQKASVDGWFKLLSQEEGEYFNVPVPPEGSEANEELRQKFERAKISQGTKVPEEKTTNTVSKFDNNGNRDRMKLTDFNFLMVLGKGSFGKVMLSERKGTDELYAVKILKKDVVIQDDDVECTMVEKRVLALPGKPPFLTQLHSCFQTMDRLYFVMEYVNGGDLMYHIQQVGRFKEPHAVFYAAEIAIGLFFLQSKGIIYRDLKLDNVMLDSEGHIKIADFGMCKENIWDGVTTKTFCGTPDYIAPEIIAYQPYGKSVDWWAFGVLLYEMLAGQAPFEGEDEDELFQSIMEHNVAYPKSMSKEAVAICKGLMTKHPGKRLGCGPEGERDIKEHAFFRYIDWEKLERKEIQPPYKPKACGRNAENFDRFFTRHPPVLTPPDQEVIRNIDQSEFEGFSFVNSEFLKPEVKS
From the text: as §1

CDK2 = CDK2 (Homo sapiens, UniProt P24941); test: Inhibition of various kinases (% inhibition); assay type: biochemical
From the text: as §1

PDK1 = target: T2, PDK1 (Homo sapiens, UniProt O15530); test: Inhibition of various kinases (% inhibition); assay type: biochemical
T2 sequence (O15530 1-556): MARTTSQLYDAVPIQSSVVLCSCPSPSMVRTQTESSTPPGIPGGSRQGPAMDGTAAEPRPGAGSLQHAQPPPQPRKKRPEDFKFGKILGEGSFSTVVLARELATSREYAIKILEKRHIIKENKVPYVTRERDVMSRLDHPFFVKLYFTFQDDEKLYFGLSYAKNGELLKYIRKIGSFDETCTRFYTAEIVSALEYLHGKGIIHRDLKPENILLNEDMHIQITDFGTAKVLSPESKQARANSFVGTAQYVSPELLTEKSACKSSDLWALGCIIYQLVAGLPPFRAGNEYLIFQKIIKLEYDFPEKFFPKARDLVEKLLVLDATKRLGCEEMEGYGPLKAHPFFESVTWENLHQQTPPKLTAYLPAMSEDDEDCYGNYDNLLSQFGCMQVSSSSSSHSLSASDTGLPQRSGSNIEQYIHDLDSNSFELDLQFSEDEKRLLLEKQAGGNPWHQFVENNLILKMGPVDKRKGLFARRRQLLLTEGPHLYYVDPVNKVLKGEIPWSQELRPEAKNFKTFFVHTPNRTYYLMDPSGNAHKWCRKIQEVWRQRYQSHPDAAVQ
From the text: as §1

[3] = BXPC-3, as reported in Gaisina et al. (2009) J. Med. Chem. 52(7), 1853-1863
[4] = HuP-T3, as reported in Gaisina et al. (2009) J. Med. Chem. 52(7), 1853-1863
[5] = MIA PaCa-2, as reported in Gaisina et al. (2009) J. Med. Chem. 52(7), 1853-1863

Row | IC50 [1] | IC50 (BXPC-3; [3]) | IC50 (BXPC-3; BXPC-3, 72 hrs, MTS) | IC50 (HupT3; [4]) | IC50 (HupT3; HuP-T3, 72 hrs, MTS) | IC50 (MIAPaCa-2; [5]) | IC50 (MIAPaCa-2; MIA PaCa-2, 72 hrs, MTS) | Molecule | Inhibition of pancreatic cancer cell proliferation compared with AR-A014418 and SB216768 [2] | other results
1 | 831 ± 77 nM | 6 ± 0.8 µM | 6 µM | 6 ± 0.5 µM | 6 µM | 8 ± 1.2 µM | 8 µM | COc1cccc2c(C3=C(c4cn(C)c5cc(C(F)(F)F)ccc45)C(=O)NC3=O)coc12 [Compound 49, 3-(7-Methoxy-benzofuran-3-yl)-4-(1-methyl-6-trifluoromethyl-1H-indol-3-yl)-pyrrole-2,5-dione] | more effective inhibition of pancreatic cancer cell proliferation than these reference compounds | 
2 | 16.2 ± 3.9 nM | > 50 µM | > 50 µM | > 50 µM | > 50 µM | 34 ± 2.2 µM | 34 µM | Cn1cc(C2=C(c3coc4ccc(F)cc34)C(=O)NC2=O)c2cc(C#CC3CC3)ccc21 [Compound 38, 3-(5-Cyclopropylethynyl-1-methyl-1H-indol-3-yl)-4-(5-fluoro-benzofuran-3-yl)-pyrrole-2,5-dione] | more effective inhibition of pancreatic cancer cell proliferation than these reference compounds | 
3 | 314 ± 19 nM |  | 7 µM | 6 ± 0.7 µM | 6 µM | 17 ± 3.2 µM | 17 µM | Cn1cc(C2=C(c3coc4cc(F)c(F)cc34)C(=O)NC2=O)c2ccc3ccccc3c21 [Compound 55, 3-(5,6-Difluoro-benzofuran-3-yl)-4-(1-methyl-1H-benzo[g]indol-3-yl)-pyrrole-2,5-dione] | more effective inhibition of pancreatic cancer cell proliferation than these reference compounds | 
4 | 184 ± 31 nM | 2 ± 0.2 µM |  | 2 ± 0.3 µM |  | 3 ± 0.4 µM | < 1 µM | Cn1cc(C2=C(c3coc4ccccc34)C(=O)NC2=O)c2cc(F)c(Cl)cc21 [Compound 12, 3-Benzofuran-3-yl-4-(6-chloro-5-fluoro-1-methyl-1H-indol-3-yl)-pyrrole-2,5-dione] | more effective inhibition of pancreatic cancer cell proliferation than these reference compounds | 
5 | 1.61 ± 0.09 nM |  |  |  |  |  |  | O=C1NC(=O)C(c2cn(CCCO)c3ccc(Br)cc23)=C1c1coc2ccccc12 [Compound 21, 3-Benzofuran-3-yl-4-[5-bromo-1-(3-hydroxy-propyl)-1H-indol-3-yl]-pyrrole-2,5-dione] |  | inhibition at 1 µM (GSK3α; 1 μM): 62%; inhibition at 10 µM (GSK3α; 10 μM): 99%; inhibition at 1 µM (PKCβ2; 1 μM): 62%; inhibition at 10 µM (PKCβ2; 10 μM): 83%; inhibition at 1 µM (CDK2; 1 μM): 62%; inhibition at 10 µM (CDK2; 10 μM): 95%; inhibition at 1 µM (PDK1; 1 μM): 80%; inhibition at 10 µM (PDK1; 10 μM): 92%

Row | Molecule | IC50 [1] | IC50 (BXPC-3; [3]) | IC50 (BXPC-3; BXPC-3, 72 hrs, MTS) | IC50 (HupT3; [4]) | IC50 (HupT3; HuP-T3, 72 hrs, MTS) | IC50 (MIAPaCa-2; [5]) | IC50 (MIAPaCa-2; MIA PaCa-2, 72 hrs, MTS) | Inhibition of pancreatic cancer cell proliferation compared with AR-A014418 and SB216768 [2] | other results
6 | 3-Benzofuran-3-yl-4-[5-bromo-1-(3-hydroxy-propyl)-1H-indol-3-yl]-pyrrole-2,5-dione [Compound 20] | 7.5 ± 1.1 nM |  |  |  |  |  |  |  | Ki [1]: 5 nM; IC50 Ratio CDK-2/cyclinE GSK-3β (CDK-2/cyclinE): 150; IC50 (CDK-2/cyclinE): 1160 nM; % Inhibition GSK3α (GSK3α; 1 μM): 58%; % Inhibition GSK3α (GSK3α; 10 μM): 100%; % Inhibition PKCβ2 (PKCβ2; 1 μM): 8%; % Inhibition PKCβ2 (PKCβ2; 10 μM): 62%; % Inhibition CDK2 (CDK2; 1 μM): 76%; % Inhibition CDK2 (CDK2; 10 μM): 90%; % Inhibition PDK1 (PDK1; 1 μM): 7%; % Inhibition PDK1 (PDK1; 10 μM): −1%
7 | Cn1cc(C2=C(c3coc4ccccc34)C(=O)NC2=O)c2ccccc21 [Compound 1, 3-Benzofuran-3-yl-4-(1-methyl-1H-indol-3-yl)-pyrrole-2,5-dione] | 35 ± 9 nM |  |  |  |  |  | 3 µM | more effective inhibition of pancreatic cancer cell proliferation than these reference compounds | IC50 Ratio CDK-2/cyclinE GSK-3β (CDK-2/cyclinE): 40; IC50 (CDK-2/cyclinE): 1410 nM
